Data published in US11458083B2, “Cosmetic and/or dermatological composition containing a merocyanine derivative comprising specific polar groups consisting of hydroxyl- and ether-functionalities” (L'OREAL, priority 2011, dated 2022).

Columns and labels:
Assay type in all cases: physicochemical
[1] = Photostability of the UV filters in a formula film exposed to a solar simulator (HPLC); settings: film about 20 μm, UVA dose 42 J/cm^2
Source text: The percentage of residual amount of each UV filter (merocyanine compound and dibenzoylmethane compound) caused by the exposure to a solar simulator of a formula spread in a film having a thickness of about 20 μm was measure. The evaluation was done by HPLC analysis of each UV filter in a solution after extraction of the film, by comparing exposed and non-exposed samples. Solar simulator: Apparatus Oriel […] equipped with a 4 pouces outlet, a 81017 filter and a dichroic mirror. The samples were exposed in horizontal position. The UV exposure was characterized by: • a UVB flux of 0.35-0.45 mW/cm^2 • a UVA flux 16-18 mW/cm^2. Each residual amount of each UV filter was measured by HPLC chromatography with a sensor having diodes bars. About 20 mg of the composition are spread on the surface of a rough melt silica disc. 3 films of composition were exposed to the solar simulator and 3 other films were used as control. The samples were exposed 3 per 3 to the light of the simulator during a sufficient time delivering an UVA dose of 42 J/cm^2. At the end of the exposure, the disc was introduced in a bowl of 600 ml with 10 ml of appropriate solvent (ie generally ethanol). The disc and the bowl were then placed during 5 minutes in an ultrasonic tank.

[2] = UV shielding properties: UV spectra in ethanol; set-up: Absorption maximum λmax: unit not given here; settings: UV spectrum in ethanol
Source text: The UV shielding properties of the merocyanine derivatives are investigated by measuring their UV spectra in ethanol. In the following table the investigated absorption maxima (Amax) together with the corresponding A^1%1cm values are listed.

[3] = Storage (chemical) stability in water/ethanol solution, UPLC; settings: 0.5% in water/ethanol 1/1, 45° C.
Method: The chemical stability of the compounds can be assessed in a water/ethanol solution 1/1 with compounds solubilized at 0.5%.
(§1) Once the solution prepared, it is placed in an oven at 45° C. for 2 months for stability and 1 h at 60° C. for acidic stress. Then the solution is aliquoted (0.005% w/v in H2O/ACN 50/50) for liquid chromatography analysis to check disappearance or not.
(§2) UPLC Acquity (Waters) with diod array detector eλ (Waters).
(§3) Column: Acquity HSS T3 (Waters), length: 50 mm, Inner diameter: 2.1 mm, particles diameter 1.8 μm. Mobile phase A=ammonium acetate 20 mM, B=Acetonitrile.
(§4) • Flow rate: 0.5 mL/min • T: 20° C. • Detection at UV 383 nm

[4] = Acid media stability (HCl 0.1M), UPLC; settings: HCl 0.1M in water/ethanol/isopropanol 50/40/10 (v/v/v), 1 h at 60° C.
Method: These solutions could be acidified to check also stability toward acid media for example HCl 0.1M in a water/ethanol/isopropanol 50/40/10 (v/v/v).
as §1, §2, §3, §4

Row | % of residual Avobenzone after UV exposure ([1]; in composition Example 9 (with 1% merocyanine compound 4)) [%] | A^1%1 cm at absorption maximum [2] | Absorption maximum λmax [2] | % of residual merocyanine compound 4 after UV exposure ([1]; in composition Example 9 (with 2% avobenzone)) [%] | Storage stability 2 months 45° C. [3] | Acid media stability 1 h 60° C. (loss) [4] | Compound
1 | 91 | – | – | – | – | – | COc1ccc(C(=O)CC(=O)c2ccc(C(C)(C)C)cc2)cc1 [Avobenzone, 4-(tert-butyl)-4′-methoxydibenzoylmethane, reference compound]
2 | – | 2283 | 380 | – | – | – | CCOC(=O)/C(C#N)=C/C=C/N(CCOC)CCOC [Compound 1]
3 | – | 2046 | 380 | – | – | – | COCCOC(=O)/C(C#N)=C/C=C/N(CCOC)CCOC [Compound 2]
4 | – | 1965 | 380 | – | – | – | CCOCCOC(=O)/C(C#N)=C/C=C/N(CCOC)CCOC [Compound 3]
5 | – | 2568 | 381 | 85 | – | – | CCOCCOC(=O)/C(C#N)=C/C=C/N1CCCCC1 [Compound 4]
6 | – | 2252 | 381 | – | – | – | COCCOCCOC(=O)/C(C#N)=C/C=C/N1CCCCC1 [Compound 5]
7 | – | 2530 | 380 | – | – | – | N#C/C(=C\C=C\N1CCCCC1)C(=O)NCCO [Compound 6]
8 | – | 2467 | 381 | – | – | – | N#C/C(=C\C=C\N1CCCCC1)C(=O)OCC(O)CO (centres unmarked) [Compound 7]
9 | – | 2414 | 380 | – | – | – | N#C/C(=C\C=C\N1CCOCC1)C(=O)OCC(O)CO (centres unmarked) [Compound 9]
10 | – | 2235 | 381 | – | – | – | CCCCOC(=O)/C(C#N)=C/C=C/N(CCO)CCCC [Compound 12]
11 | – | 2207 | 385 | – | – | – | CCOC(=O)/C(C#N)=C1\C=C(NCCCOC)CCC1 [Compound 14]
12 | – | 1644 | 385 | – | No loss | Loss 100% | COCCCNC(=O)/C(C#N)=C1\C=C(NCCCOC)CCC1 [Compound 15]
13 | – | 1618 | 386 | – | – | – | CCCCC(CC)CNC1=C/C(=C(/C#N)C(=O)NCCO)CCC1 (centres unmarked) [Compound 16]
14 | – | 2083 | 385 | – | – | – | CC(C)COC(=O)/C(C#N)=C1\C=C(NCC(C)O)CCC1 (centres unmarked) [Compound 17]
15 | – | 2036 | 385 | – | – | – | CCCCCCCCOC(=O)/C(C#N)=C/C=C/N(CC)CCO [Compound 18]
16 | – | 2230 | 381 | – | – | – | CCCN(/C=C/C=C(\C#N)C(=O)OCC(O)CO)CCC (centres unmarked) [Compound 23]
17 | – | 1947 | 385 | – | No loss | Loss 4% | CCOCCOC(=O)/C(C#N)=C1\C=C(NCCCOC)CCC1 [Compound 25, 2-ethoxyethyl (2Z)-cyano{3-[(3-methoxypropyl)amino]cyclohex-2-en-1-ylidene}ethanoate]
